{"source": "ChEMBL document CHEMBL2401615", "about": "“Peptide backbone replacement of hepatitis C virus NS3 serine protease C-terminal cleavage product analogs: discovery of potent succinamide inhibitors” (Bioorg Med Chem Lett, 2013)", "key": {"Hepatitis C virus [1]": {"test_system": "Hepatitis C virus", "assay": "Antiviral activity against Hepatitis C virus", "type": "functional, organism-based, Hepacivirus hominis"}, "[2]": {"assay": "Permeability across apical to basolateral side in human Caco2 cells", "type": "ADME, cell-based", "details": "Caco-2, read-out: permeability"}, "[3]": {"assay": "Solubility of the compound at pH 7.2", "type": "physicochemical", "details": "buffer"}, "[4]": {"assay": "Inhibition of Hepatitis C virus NS3 protease", "parameters": "species or system Hepacivirus hominis"}, "[5]": {"assay": "Half life in human liver microsomes", "type": "ADME, Microsome"}, "[6]": {"assay": "Half life in rat liver microsomes", "type": "ADME, Microsome"}, "[7]": {"assay": "Plasma concentration in rat at 5 mg/kg measured at 1 hr", "type": "ADME, organism-based", "parameters": "dose 5 mg/kg"}, "Rattus norvegicus [8]": {"test_system": "Rattus norvegicus", "assay": "AUC (0 to infinity) in rat at 5 mg/kg, po", "type": "ADME, organism-based, Plasma", "parameters": "time infinity, dose 5 mg/kg, route oral", "details": "in vivo"}, "[9]": {"assay": "Bioavailability in rat at 2 mg/kg, […]", "type": "ADME, organism-based", "details": "in vivo"}, "[10]": {"assay": "Half life in rat at 2 mg/kg, iv", "type": "ADME, organism-based", "parameters": "dose 2 mg/kg, route intravenous", "details": "in vivo"}, "Rattus norvegicus [11]": {"test_system": "Rattus norvegicus", "assay": "Cmax in rat at 5 mg/kg, po", "type": "ADME, organism-based", "parameters": "dose 5 mg/kg, route oral", "details": "in vivo"}, "[12]": {"assay": "Clearance in rat at 2 mg/kg, iv", "type": "ADME, organism-based", "parameters": "dose 2 mg/kg, route intravenous", "details": "in vivo"}, "[13]": {"assay": "Permeability across basolateral to apical side in human Caco2 cells", "type": "ADME, cell-based", "details": "Caco-2, read-out: permeability"}, "[14]": {"assay": "Half life in monkey liver microsomes", "type": "ADME, Macaca mulatta, Microsome", "details": "rhesus monkey"}, "[15]": {"assay": "Half life in dog liver microsomes", "type": "ADME, Canis lupus familiaris, Microsome"}, "[16]": {"assay": "Volume of distribution at steady state in rat at 2 mg/kg, iv", "type": "ADME, organism-based", "parameters": "dose 2 mg/kg, route intravenous", "details": "in vivo, read-out: Vdss"}, "Hepatitis C virus [17]": {"test_system": "Hepatitis C virus", "assay": "Antiviral activity against Hepatitis C virus genotype 1b infected in human Huh-9-13 cells by replicon assay", "type": "functional, organism-based, Hepacivirus hominis"}}, "data": [{"compound": "C=C[C@@H]1C[C@]1(NC(=O)[C@@H]1C[C@@H](Oc2cc(OCC)nc3c(Cl)cccc23)CN1C(=O)[C@@H](CC(=O)Nc1ccccc1)C(C)(C)C)C(=O)NS(=O)(=O)C1CC1", "values": [{"measurement": "EC50", "setting": "Hepatitis C virus [1]", "value": 6.5, "unit": "nM"}, {"measurement": "Papp A→B", "setting": "[2]", "value": 3.9, "unit": "×10⁻⁶ cm/s"}, {"measurement": "solubility", "setting": "[3]", "value": 56, "unit": "mg/mL"}, {"measurement": "IC50", "setting": "[4]", "value": 0.8, "unit": "nM"}, {"measurement": "half-life", "setting": "[5]", "value": "> 5", "unit": "h"}, {"measurement": "half-life", "setting": "[6]", "value": 2.67, "unit": "h"}]}, {"compound": "C=C[C@@H]1C[C@]1(NC(=O)[C@@H]1C[C@@H](Oc2cc(-c3csc(NC(C)=O)n3)nc3cc(OC)ccc23)CN1C(=O)[C@@H](CC(=O)NC1CCCC1)C(C)(C)C)C(=O)O", "values": [{"measurement": "IC50", "setting": "[4]", "value": 23, "unit": "nM"}]}, {"compound": "C=C[C@@H]1C[C@]1(NC(=O)[C@@H]1C[C@@H](Oc2cc(-c3csc(NC(C)=O)n3)nc3cc(OC)ccc23)CN1C(=O)[C@@H](CC(=O)Nc1ccccc1)C(C)(C)C)C(=O)O", "values": [{"measurement": "IC50", "setting": "[4]", "value": 13, "unit": "nM"}]}, {"compound": "C=C[C@@H]1C[C@]1(NC(=O)[C@@H]1C[C@@H](Oc2cc(OCC)nc3c(Br)c(OC)ccc23)CN1C(=O)[C@@H](CC(=O)Nc1ccccc1)C(C)(C)C)C(=O)NS(=O)(=O)C1CC1", "values": [{"measurement": "EC50", "setting": "Hepatitis C virus [1]", "value": 2.5, "unit": "nM"}, {"measurement": "Papp A→B", "setting": "[2]", "value": 2.4, "unit": "×10⁻⁶ cm/s"}, {"measurement": "solubility", "setting": "[3]", "value": 45, "unit": "mg/mL"}, {"measurement": "IC50", "setting": "[4]", "value": 0.4, "unit": "nM"}, {"measurement": "half-life", "setting": "[5]", "value": 1.52, "unit": "h"}, {"measurement": "half-life", "setting": "[6]", "value": "> 5", "unit": "h"}, {"measurement": "concentration at 1 h", "setting": "[7]", "value": 100, "unit": "nM"}]}, {"compound": "C=C[C@@H]1C[C@]1(NC(=O)[C@@H]1C[C@@H](Oc2nccc3cc(OC)ccc23)CN1C(=O)[C@@H](NC(=O)OC(C)(C)C)C(C)(C)C)C(=O)NS(=O)(=O)C1CC1", "values": [{"measurement": "EC50", "setting": "Hepatitis C virus [1]", "value": 3, "unit": "nM"}, {"measurement": "IC50", "setting": "[4]", "value": 2, "unit": "nM"}]}, {"compound": "C=C[C@@H]1C[C@]1(NC(=O)[C@@H]1C[C@@H](Oc2cc(OCC)nc3c(Cl)cccc23)CN1C(=O)[C@@H](CC(=O)NC(C)(C)C)C(C)(C)C)C(=O)NS(=O)(=O)C1CC1", "values": [{"measurement": "EC50", "setting": "Hepatitis C virus [1]", "value": 69, "unit": "nM"}, {"measurement": "Papp A→B", "setting": "[2]", "value": 3, "unit": "×10⁻⁶ cm/s"}, {"measurement": "solubility", "setting": "[3]", "value": 144, "unit": "mg/mL"}, {"measurement": "IC50", "setting": "[4]", "value": 0.9, "unit": "nM"}, {"measurement": "half-life", "setting": "[5]", "value": 1.58, "unit": "h"}]}, {"compound": "C=C[C@@H]1C[C@]1(NC(=O)[C@@H]1C[C@@H](Oc2cc(-c3csc(NC(C)=O)n3)nc3cc(OC)ccc23)CN1C(=O)[C@@H](NC(=O)OC(C)(C)C)C(C)(C)C)C(=O)O", "values": [{"measurement": "IC50", "setting": "[4]", "value": 13, "unit": "nM"}]}, {"compound": "C=C[C@@H]1C[C@]1(NC(=O)[C@@H]1C[C@@H](Oc2nccc3cc(OC)ccc23)CN1C(=O)[C@@H](CC(=O)Nc1ccccc1)C(C)(C)C)C(=O)NS(=O)(=O)C1CC1", "values": [{"measurement": "EC50", "setting": "Hepatitis C virus [1]", "value": 64, "unit": "nM"}, {"measurement": "IC50", "setting": "[4]", "value": 1.7, "unit": "nM"}]}, {"compound": "C=C[C@@H]1C[C@]1(NC(=O)[C@@H]1C[C@@H](Oc2cc(-c3csc(NC(C)C)n3)nc3c(Br)c(OC)ccc23)CN1C(=O)[C@@H](CC(=O)NC1CCCC1)C(C)(C)C)C(=O)O", "values": [{"measurement": "EC50", "setting": "Hepatitis C virus [1]", "value": 3.5, "unit": "nM"}, {"measurement": "AUC", "setting": "Rattus norvegicus [8]", "value": 2.1, "unit": "µM·h"}, {"measurement": "Papp A→B", "setting": "[2]", "value": 8, "unit": "×10⁻⁶ cm/s"}, {"measurement": "bioavailability", "setting": "[9]", "value": 47, "unit": "%"}, {"measurement": "IC50", "setting": "[4]", "value": 10, "unit": "nM"}, {"measurement": "half-life", "setting": "[10]", "value": 1.4, "unit": "h"}, {"measurement": "Cmax", "setting": "Rattus norvegicus [11]", "value": 850, "unit": "nM"}, {"measurement": "clearance", "setting": "[12]", "value": 22, "unit": "mL/min/kg"}, {"measurement": "half-life", "setting": "[5]", "value": 3.45, "unit": "h"}, {"measurement": "half-life", "setting": "[6]", "value": 3.13, "unit": "h"}, {"measurement": "Papp B→A", "setting": "[13]", "value": 10, "unit": "×10⁻⁶ cm/s"}, {"measurement": "half-life", "setting": "[14]", "value": 0.867, "unit": "h"}, {"measurement": "half-life", "setting": "[15]", "value": 2.55, "unit": "h"}, {"measurement": "Vd", "setting": "[16]", "value": 1.3, "unit": "L/kg"}]}, {"compound": "C=C[C@@H]1C[C@]1(NC(=O)[C@@H]1C[C@@H](Oc2cc(-c3ccccc3)nc3cc(OC)ccc23)CN1C(=O)[C@@H](CC(=O)N1CCCCC1)C(C)(C)C)C(=O)NS(=O)(=O)C1CC1", "note": "[SOVAPREVIR]", "values": [{"measurement": "EC50", "setting": "Hepatitis C virus [17]", "value": 11, "unit": "nM"}]}, {"compound": "C=C[C@@H]1C[C@]1(NC(=O)[C@@H]1C[C@@H](Oc2nccc3cc(OC)ccc23)CN1C(=O)[C@@H](CC(=O)NC(C)(C)C)C(C)(C)C)C(=O)NS(=O)(=O)C1CC1", "values": [{"measurement": "EC50", "setting": "Hepatitis C virus [1]", "value": 130, "unit": "nM"}, {"measurement": "IC50", "setting": "[4]", "value": 8.7, "unit": "nM"}]}, {"compound": "C=C[C@@H]1C[C@]1(NC(=O)[C@@H]1C[C@@H](Oc2cc(OCC)nc3c(Br)c(OC)ccc23)CN1C(=O)[C@@H](CC(=O)NC(C)(C)C)C(C)(C)C)C(=O)NS(=O)(=O)C1CC1", "values": [{"measurement": "EC50", "setting": "Hepatitis C virus [1]", "value": 8.4, "unit": "nM"}, {"measurement": "Papp A→B", "setting": "[2]", "value": 7.1, "unit": "×10⁻⁶ cm/s"}, {"measurement": "solubility", "setting": "[3]", "value": 83, "unit": "mg/mL"}, {"measurement": "IC50", "setting": "[4]", "value": 0.8, "unit": "nM"}, {"measurement": "half-life", "setting": "[5]", "value": "> 5", "unit": "h"}]}, {"compound": "C=C[C@@H]1C[C@]1(NC(=O)[C@@H]1C[C@@H](Oc2cc(-c3csc(NC(C)=O)n3)nc3cc(OC)ccc23)CN1C(=O)[C@@H](CC(=O)NC(C)(C)C)C(C)(C)C)C(=O)O", "values": [{"measurement": "IC50", "setting": "[4]", "value": 53, "unit": "nM"}]}, {"compound": "C=C[C@@H]1C[C@]1(NC(=O)[C@@H]1C[C@@H](Oc2cc(-c3csc(NC(C)=O)n3)nc3cc(OC)ccc23)CN1C(=O)[C@@H](NC(=O)NC(C)(C)C)C(C)(C)C)C(=O)O", "values": [{"measurement": "IC50", "setting": "[4]", "value": 2.6, "unit": "nM"}]}, {"compound": "C=C[C@@H]1C[C@]1(NC(=O)[C@@H]1C[C@@H](Oc2cc(-c3csc(NC(C)=O)n3)nc3cc(OC)ccc23)CN1C(=O)[C@@H](OC(=O)NC(C)(C)C)C(C)(C)C)C(=O)O", "values": [{"measurement": "IC50", "setting": "[4]", "value": 140, "unit": "nM"}]}, {"compound": "C=C[C@@H]1C[C@]1(NC(=O)[C@@H]1C[C@@H](Oc2cc(-c3csc(NC(C)C)n3)nc3c(Br)c(OC)ccc23)CN1C(=O)[C@@H](NC(=O)OC1CCCC1)C(C)(C)C)C(=O)O", "values": [{"measurement": "EC50", "setting": "Hepatitis C virus [1]", "value": 6.8, "unit": "nM"}, {"measurement": "Papp A→B", "setting": "[2]", "value": 17, "unit": "×10⁻⁶ cm/s"}, {"measurement": "IC50", "setting": "[4]", "value": 8.9, "unit": "nM"}, {"measurement": "half-life", "setting": "[5]", "value": "> 5", "unit": "h"}, {"measurement": "half-life", "setting": "[6]", "value": 3.5, "unit": "h"}, {"measurement": "Papp B→A", "setting": "[13]", "value": 2, "unit": "×10⁻⁶ cm/s"}, {"measurement": "half-life", "setting": "[14]", "value": 3.17, "unit": "h"}, {"measurement": "half-life", "setting": "[15]", "value": "> 5", "unit": "h"}]}]}
